Experimental data as given in patent publication US20260167637A1, “NLRP3 INFLAMMASOME INHIBITOR AND USE THEREOF” (TransThera Sciences (Nanjing), Inc., priority 2022, published 2026).

What follows are compounds tested against T1, THP-1 cell NLRP3 (Homo sapiens, UniProt Q96P20) (assay: Inhibitory activity against cell NLRP3 inflammasomes in THP-1 cells (LPS + nigericin, ELISA of supernatant)). Conditions: PMA-differentiated THP-1 cells, LPS 500 ng/mL 3 h, compound 1 h, nigericin 30 min; human IL-10 (so in the source) in supernatant by ELISA.
T1 construct: endogenous in cells; host or cells: THP-1 cells, PMA-differentiated, stimulated with LPS and nigericin
T1 sequence (Q96P20 whole entry): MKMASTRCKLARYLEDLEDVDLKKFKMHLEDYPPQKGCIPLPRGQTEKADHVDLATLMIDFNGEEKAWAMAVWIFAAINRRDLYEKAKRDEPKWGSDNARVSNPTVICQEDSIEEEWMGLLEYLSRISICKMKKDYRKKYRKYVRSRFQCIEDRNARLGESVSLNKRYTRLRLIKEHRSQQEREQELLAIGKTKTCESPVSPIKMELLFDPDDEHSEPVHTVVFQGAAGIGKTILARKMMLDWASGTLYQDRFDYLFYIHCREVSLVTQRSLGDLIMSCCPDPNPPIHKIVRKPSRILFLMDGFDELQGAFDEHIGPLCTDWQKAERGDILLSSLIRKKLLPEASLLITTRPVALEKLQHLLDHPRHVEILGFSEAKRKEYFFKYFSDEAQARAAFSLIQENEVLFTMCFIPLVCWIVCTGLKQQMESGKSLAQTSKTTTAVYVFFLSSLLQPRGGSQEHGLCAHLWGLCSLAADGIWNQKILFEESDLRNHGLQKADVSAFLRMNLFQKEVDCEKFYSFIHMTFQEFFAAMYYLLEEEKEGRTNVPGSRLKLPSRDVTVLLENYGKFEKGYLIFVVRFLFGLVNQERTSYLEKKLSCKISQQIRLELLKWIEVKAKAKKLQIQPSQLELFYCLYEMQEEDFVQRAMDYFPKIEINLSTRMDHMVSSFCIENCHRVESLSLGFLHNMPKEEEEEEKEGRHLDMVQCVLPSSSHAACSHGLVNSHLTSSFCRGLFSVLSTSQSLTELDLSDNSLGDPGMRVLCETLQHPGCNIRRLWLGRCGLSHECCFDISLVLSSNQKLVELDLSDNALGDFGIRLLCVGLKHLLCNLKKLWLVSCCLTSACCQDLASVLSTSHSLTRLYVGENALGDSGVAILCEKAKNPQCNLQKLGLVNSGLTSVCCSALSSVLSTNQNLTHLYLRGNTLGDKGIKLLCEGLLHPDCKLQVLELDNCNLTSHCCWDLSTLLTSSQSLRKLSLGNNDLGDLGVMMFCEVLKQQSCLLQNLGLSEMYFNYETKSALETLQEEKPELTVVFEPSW
Type: cell-based
Description: Experimental Example 1: Assay for Inhibitory Activity of Compounds Disclosed Herein Against Cell NLRP3 Inflammasomes
Test substances: The compounds of the present disclosure, prepared according to the methods described in the examples.
THP-1 is an immortalized human […] cell line.
Instrument: microplate reader (made by PE)
Assay Method: 1. THP-1 cells were cultured in 1640 complete medium (500 mL of 1640+56 mL of FBS+560 μL of 1000×P/S+2 μL of mercaptoethanol), and cells at passages 3-20 were used.
2. Culture plate coating: 100 μL of polylysine solution was added to a 96-well cell culture plate. After 30 min of incubation at 37° C., the solution was discarded, and the plate was washed with PBS twice for later use.
3. Induction of THP-1 differentiation: THP-1 cells were resuspended in an appropriate amount of complete medium containing 10 ng/mL PMA to form a cell suspension with a density of 5×10^5 cells/mL. The suspension was added to the 96-well plate at 100 μL/well, and the plate was incubated overnight in a 37° C. carbon dioxide cell incubator for 16 h.
4. Stimulation of THP-1: • a. Serum-free THP-1 culture medium containing LPS was added, with the final concentration being 500 ng/mL. The plate was incubated in a 37° C. carbon dioxide cell incubator for 3 h. • b. Mother liquors of the compounds to be tested with gradient concentrations were prepared with DMSO, added to the cells, and well mixed. Dilution was finally performed in a 1:1000 ratio. The plate was incubated in a 37° C. carbon dioxide cell incubator for 1 h. • c. Nigericin was added to each well, with the final concentration being […]. The plate was incubated in a carbon dioxide cell incubator at 37° C. for 30 min. • d. The medium in the wells was transferred to a new culture plate, and after 5 min of centrifugation at 3000 rpm, the supernatant was transferred to a new 96-well plate. • e. The content of human […] in the collected cell culture supernatant samples was determined with a commercial ELISA kit by following the instructions.
Work on CC#Cc1ccc(-c2nnc(N[C@@H]3CCCN(CCO)C3)c(=O)n2C)c(O)c1 [Compound 33, (R)-3-(2-hydroxy-4-(prop-1-yn-1-yl)phenyl)-6-((1-(2-hydroxyethyl)piperidin-3-yl)amino)-4-methyl-1,2,4-triazin-5(4H)-one] yielded an IC50 of 11.5 nM.
Work on CC#Cc1ccc(-c2nnc(N[C@@H]3CCCN(CCCO)C3)cc2C)c(O)c1 [Compound 35, (R)-2-(6-((1-(3-hydroxypropyl)piperidin-3-yl)amino)-4-methylpyridazin-3-yl)-5-(prop-1-yn-1-yl)phenol] yielded an IC50 of 3.3 nM.
For CC#Cc1ccc(-c2nnc(N[C@@H]3CCCN(CC(C)(C)O)C3)cc2C)c(O)c1 [Compound 36, (R)-2-(6-((1-(2-hydroxy-2-methylpropyl)piperidin-3-yl)amino)-4-methylpyridazin-3-yl)-5-(prop-1-yn-1-yl)phenol], the IC50 was 12.7 nM.
CC#Cc1ccc(-c2nnc(N[C@@H]3CCCN(C(C)CO)C3)cc2C)c(O)c1 (stereo partly drawn) [Compound 37, 2-(6-(((3R)-1-(1-hydroxypropan-2-yl)piperidin-3-yl)amino)-4-methylpyridazin-3-yl)-5-(prop-1-yn-1-yl)phenol] gave an IC50 of 0.8 nM.
Cc1cc(N[C@@H]2CCCN(C)C2)nnc1-c1ccc(C=C(F)F)cc1O [Compound 39, (R)-5-(2,2-difluorovinyl)-2-(4-methyl-6-((1-methylpiperidin-3-yl)amino)pyridazin-3-yl) phenol] was tested, and the IC50 was 0.3 nM.
CC#Cc1ccc(-c2nnc(N[C@@H]3CCCN(C)C3)n3nccc23)c(O)c1 [Compound 40, (R)-2-(7-((1-methylpiperidin-3-yl)amino)pyrazolo[1,5-d][1,2,4]triazin-4-yl)-5-(prop-1-yn-1-yl)phenol] showed an IC50 of 12.8 nM.
In the case of C#Cc1cc(C)c(-c2ccc(N[C@@H]3CCCN(C)C3)nn2)c(O)c1 [Compound 41, (R)-5-ethynyl-3-methyl-2-(6-((1-methylpiperidin-3-yl)amino)pyridazin-3-yl)phenol], the IC50 is reported as 0.3 nM.
For [2H]C([2H])([2H])N1CCC[C@@H](Nc2nnc(-c3ccc(C#C)cc3O)c(C3CC3)n2)C1 [Compound 87, (R)-2-(5-cyclopropyl-3-((1-(methyl-d3)piperidin-3-yl)amino)-1,2,4-triazin-6-yl)-5-ethynylphenol], the IC50 was 0.7 nM.
For C#Cc1ccc(-c2nnc(N[C@@H]3CCCN(CC)C3)nc2C)c(O)c1 [Compound 91, (R)-2-(3-((1-ethylpiperidin-3-yl)amino)-5-methyl-1,2,4-triazin-6-yl)-5-ethynylphenol], the IC50 was 0.2 nM.
Compound C#Cc1ccc(-c2nnc(N[C@@H]3CCCN(CC)C3)nc2C2CC2)c(O)c1 [Compound 92, (R)-2-(5-cyclopropyl-3-((1-ethylpiperidin-3-yl)amino)-1,2,4-triazin-6-yl)-5-ethynylphenol] has an IC50 of 0.5 nM.
With C#Cc1ccc(-c2nnc(N[C@@H]3CCCN(C4CC4)C3)cc2C)c(O)c1 [Compound 94, (R)-2-(6-((1-cyclopropylpiperidin-3-yl)amino)-4-methylpyridazin-3-yl)-5-ethynylphenol] the IC50 was 0.3 nM.
With C#Cc1ccc(-c2nnc(N[C@@H]3CCCN(C4CC4)C3)cc2C2CC2)c(O)c1 [Compound 95, (R)-2-(4-cyclopropyl-6-((1-cyclopropylpiperidin-3-yl)amino)pyridazin-3-yl)-5-ethynylphenol] the IC50 was 0.4 nM.
C#Cc1ccc(-c2nnc(N[C@@H]3CCCN(C4CC4)C3)nc2C)c(O)c1 [Compound 96, (R)-2-(3-((1-cyclopropylpiperidin-3-yl)amino)-5-methyl-1,2,4-triazin-6-yl)-5-ethynylphenol] was tested, and the IC50 was 0.5 nM.
For C#Cc1ccc(-c2nnc(N[C@@H]3CCCN(C4CC4)C3)nc2C2CC2)c(O)c1 [Compound 97, (R)-2-(5-cyclopropyl-3-((1-cyclopropylpiperidin-3-yl)amino)-1,2,4-triazin-6-yl)-5-ethynylphenol], the IC50 was 1 nM.
Compound C#Cc1ccc(-c2nnc(N[C@@H]3CCCN(C4CC4)C3)c(=O)n2C)c(O)c1 [Compound 98, (R)-6-((1-cyclopropylpiperidin-3-yl)amino)-3-(4-ethynyl-2-hydroxyphenyl)-4-methyl-1,2,4-triazin-5(4H)-one] has an IC50 of 5 nM.
In the case of C#Cc1ccc(-c2nnc(N[C@@H]3CCCN(CC)C3)c(=O)n2C2CC2)c(O)c1 [Compound 109, (R)-4-cyclopropyl-6-((1-ethylpiperidin-3-yl)amino)-3-(4-ethynyl-2-hydroxyphenyl)-1,2,4-triazin-5(4H)-one], the IC50 is reported as 16 nM.
Cc1cc(N[C@@H]2CCCN(C)C2)nnc1-c1ccc(C#CC(F)(F)F)cc1O [Compound 111, (R)-2-(4-methyl-6-((1-methylpiperidin-3-yl)amino)pyridazin-3-yl)-5-(3,3,3-trifluoroprop-1-yn-1-yl)phenol] gave an IC50 of 1.1 nM.
C#Cc1ccc(-c2nnc(N[C@@H]3CCCN(C)C3)c(=O)n2C(C)C)c(O)c1 [Compound 112, (R)-3-(4-Ethynyl-2-hydroxyphenyl)-4-isopropyl-6-((1-methylpiperidin-3-yl)amino)-1,2,4-triazin-5(4H)-one] gave an IC50 of 12 nM.
Compound C#Cc1ccc(-c2nnc(N[C@@H]3CCCNC3)cc2C)c(O)c1 [Compound 139, (R)-5-ethynyl-2-(4-methyl-6-(piperidin-3-ylamino)pyridazin-3-yl)phenol] has an IC50 of 1.1 nM.
In the case of C#Cc1ccc(-c2nnc(N[C@@H]3CCCNC3)cc2C(F)(F)F)c(O)c1 [Compound 161, (R)-5-ethynyl-2-(6-(piperidin-3-ylamino)-4-trifluoromethylpyridazin-3-yl)phenol], the IC50 is reported as 9.9 nM.
C#Cc1ccc(-c2nnc(N[C@@H]3CCCN(CCO)C3)cc2C(F)(F)F)c(O)c1 [Compound 163, (R)-5-ethynyl-2-(6-((1-(2-hydroxyethyl)piperidin-3-yl)amino)-4-trifluoromethylpyridazin-3-yl)phenol] gave an IC50 of 1.1 nM.
Compound C#Cc1ccc(-c2nnc(N[C@@H]3CCCN(CCOC)C3)cc2C2CC2)c(O)c1 [Compound 240, (R)-2-(4-cyclopropyl-6-((1-(2-methoxyethyl)piperidin-3-yl)amino)pyridazin-3-yl)-5-ethynylphenol] has an IC50 of 1.3 nM.
